Laboratory results taken from US11384055B2 (BIOMARIN PHARMACEUTICAL INC., priority 2017, dated 2022).

Target: T1, Human GO (Homo sapiens, UniProt Q9UJM8)
T1 construct: purchased Novus Biologicals NBP1-72412
T1 sequence (Q9UJM8 1-370): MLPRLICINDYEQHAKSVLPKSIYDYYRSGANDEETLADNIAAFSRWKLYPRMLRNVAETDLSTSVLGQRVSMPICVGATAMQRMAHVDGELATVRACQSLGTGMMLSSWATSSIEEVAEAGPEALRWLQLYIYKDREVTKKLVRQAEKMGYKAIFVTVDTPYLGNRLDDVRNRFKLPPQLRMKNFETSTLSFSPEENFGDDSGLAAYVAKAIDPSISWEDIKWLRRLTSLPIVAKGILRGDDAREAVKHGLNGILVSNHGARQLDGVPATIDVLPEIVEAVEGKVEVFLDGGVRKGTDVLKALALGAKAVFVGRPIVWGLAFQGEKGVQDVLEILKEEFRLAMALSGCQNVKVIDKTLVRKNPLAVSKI
Assay: GO enzymatic assay (coupled fluorescence/HRP assay, glycolate substrate)
Format: biochemical
Settings: Table 2; read-out: Range (range of IC50 values calculated from the enzymatic assays)
Procedure, shortened: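 Human GO incubated with glycolate substrate in 50 mM potassium phosphate, pH 7, with varying inhibitor concentrations. Activity read by coupled HRP fluorescence. IC50 taken from variable-slope sigmoidal dose-response fits of percent inhibition relative to DMSO control.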

Row | IC50 [nM] | SMILES
1 | < 100 | O=C(O)c1[nH]nnc1Oc1ccc(-c2ccc(N3CCCCC3)cc2)cc1 [Compound 221, 4-((4′-(piperidin-1-yl)-[1,1′-biphenyl]-4-yl)oxy)-1H-1,2,3-triazole-5-carboxylic acid 2,2,2-trifluoroacetate]
2 | < 100 | CN1CCCc2cc(-c3ccc(Oc4nn[nH]c4C(=O)O)cc3)ccc21 [Compound 222, 4-(4-(1-methyl-1,2,3,4-tetrahydroquinolin-6-yl)phenoxy)-1H-1,2,3-triazole-5-carboxylic acid]
3 | < 100 | O=C(O)c1[nH]nnc1Oc1ccc(-c2cccc3c2CCCC3)cc1 [Compound 223, 4-(4-(5,6,7,8-tetrahydronaphthalen-1-yl)phenoxy)-1H-1,2,3-triazole-5-carboxylic acid 2,2,2-trifluoroacetate]
4 | < 100 | O=C(O)c1[nH]nnc1Oc1ccc(-c2cccc(CN3CCCCC3=O)c2)cc1 [Compound 224, 4-((3′-((2-oxopiperidin-1-yl)methyl)-[1,1′-biphenyl]-4-yl)oxy)-1H-1,2,3-triazole-5-carboxylic acid]
5 | < 100 | N#Cc1ccc(-c2ccc(Oc3nn[nH]c3C(=O)O)cc2)cc1 [Compound 225, 4-((4′-cyano-[1,1′-biphenyl]-4-yl)oxy)-1H-1,2,3-triazole-5-carboxylic acid]
6 | 1000 to 10000 | CC(C)N1CCc2ccc(Oc3nn[nH]c3C(=O)O)cc2C1 [Compound 226, 4-((2-isopropyl-1,2,3,4-tetrahydroisoquinolin-7-yl)oxy)-1H-1,2,3-triazole-5-carboxylic acid 2,2,2-trifluoroacetate]
7 | < 100 | O=C(O)c1[nH]nnc1OCc1ccc2cc(Cl)ccc2c1 [Compound 227, 4-((6-chloronaphthalen-2-yl)methoxy)-1H-1,2,3-triazole-5-carboxylic acid 2,2,2-trifluoroacetate]
8 | < 100 | O=C(O)c1[nH]nnc1Oc1ccc(-c2cccc(C3CCCCC3)c2)cc1 [Compound 228, 4-((3′-cyclohexyl-[1,1′-biphenyl]-4-yl)oxy)-1H-1,2,3-triazole-5-carboxylic acid]
9 | 100 to 1000 | O=C(O)c1c(Oc2ccc(Cl)c(Cl)c2)nnn1COC(=O)C1CCCCC1 [Compound 229, 1-(((cyclohexanecarbonyl)oxy)methyl)-4-(3,4-dichlorophenoxy)1H-1,2,3-triazole-5-carboxylic acid]
10 | < 100 | COCCOc1cccc(-c2ccc(Oc3nn[nH]c3C(=O)O)cc2)c1 [Compound 230, 4-((3′-(2-methoxyethoxy)-[1,1′-biphenyl]-4-yl)oxy)-1H-1,2,3-triazole-5-carboxylic acid]
11 | < 100 | O=C(O)c1[nH]nnc1Oc1ccc2c(c1)OCCO2 [Compound 231, 4-((2,3-dihydrobenzo[b][1,4]dioxin-6-yl)oxy)-1H-1,2,3-triazole-5-carboxylic acid 2,2,2-trifluoroacetate]
12 | < 100 | O=C(O)c1[nH]nnc1Oc1ccc(-c2cccc(OCC3CC3)c2)cc1 [Compound 232, 4-((3′-(cyclopropylmethoxy)-[1,1′-biphenyl]-4-yl)oxy)-1H-1,2,3-triazole-5-carboxylic acid]
13 | < 100 | CC(=O)N1CCN(c2cccc(-c3ccc(Oc4nn[nH]c4C(=O)O)cc3)c2)CC1 [Compound 233, 4-((3′-(4-acetylpiperazin-1-yl)-[1,1′-biphenyl]-4-yl)oxy)-1H-1,2,3-triazole-5-carboxylic acid 2,2,2-trifluoroacetate]
14 | < 100 | COCCOc1ccc(-c2ccc(Oc3nn[nH]c3C(=O)O)cc2)cc1 [Compound 234, 4-((4′-(2-methoxyethoxy)-[1,1′-biphenyl]-4-yl)oxy)-1H-1,2,3-triazole-5-carboxylic acid]
15 | < 100 | O=C(O)c1[nH]nnc1Oc1ccc2cc(OC(F)F)ccc2c1 [Compound 236, 4-((6-(difluoromethoxy)naphthalen-2-yl)oxy)-1H-1,2,3-triazole-5-carboxylic acid]
16 | < 100 | O=C(O)c1[nH]nnc1OC1CCc2cc(F)c(F)cc2C1 (stereo not drawn) [Compound 237, 4-((6,7-difluoro-1,2,3,4-tetrahydronaphthalen-2-yl)oxy)-1H-1,2,3-triazole-5-carboxylic acid]
17 | < 100 | O=C(O)c1[nH]nnc1Oc1ccc(-c2cccc(C3CCOCC3)c2)cc1 [Compound 238, 4-((3′-(tetrahydro-2H-pyran-4-yl)-[1,1′-biphenyl]-4-yl)oxy)-1H-1,2,3-triazole-5-carboxylic acid 2,2,2-trifluoroacetate]

Row | IC50 [nM] | SMILES
18 | 100 to 1000 | CC(C)C(=O)OCOC(=O)c1[nH]nnc1Oc1ccc2cc(Cl)ccc2c1 [Compound 239, (isobutyryloxy)methyl 4-((6-chloronaphthalen-2-yl)oxy)-1H-1,2,3-triazole-5-carboxylate]
19 | < 100 | O=C(O)c1[nH]nnc1OC1Cc2cc(Cl)c(Cl)cc2C1 [Compound 241, 4-((5,6-dichloro-2,3-dihydro-1H-inden-2-yl)oxy)-1H-1,2,3-triazole-5-carboxylic acid 2,2,2-trifluoroacetate]
20 | < 100 | O=C(O)c1[nH]nnc1Oc1ccc(-c2ccc(C3CCOCC3)cc2)cc1 [Compound 242, 4-((4′-(tetrahydro-2H-pyran-4-yl)-[1,1′-biphenyl]-4-yl)oxy)-1H-1,2,3-triazole-5-carboxylic acid]
21 | < 100 | O=C(O)c1[nH]nnc1CSc1ccc(Cl)c(Cl)c1 [Compound 243, 4-(((3,4-dichlorophenyl)thio)methyl)-1H-1,2,3-triazole-5-carboxylic acid]
22 | 1000 to 10000 | CC(C)C(=O)OCOC(=O)c1[nH]nnc1Sc1ccc(-c2ccc(N3CCCCC3)cc2)cc1 [Compound 244, (isobutyryloxy)methyl 4-((4′-(piperidin-1-yl)-[1,1′-biphenyl]-4-yl)thio)-1H-1,2,3-triazole-5-carboxylate]
23 | 1000 to 10000 | CC(C)N1CCCc2ccc(Oc3nn[nH]c3C(=O)O)cc21 [Compound 245, 4-((1-isopropyl-1,2,3,4-tetrahydroquinolin-7-yl)oxy)-1H-1,2,3-triazole-5-carboxylic acid 2,2,2-trifluoroacetate]
24 | 100 to 1000 | CN1CCN(c2cccc(-c3ccc(Oc4nn[nH]c4C(=O)O)cc3)c2)CC1 [Compound 246, 4-((3′-(4-methylpiperazin-1-yl)-[1,1′-biphenyl]-4-yl)oxy)-1H-1,2,3-triazole-5-carboxylic acid 2,2,2-trifluoroacetate]
25 | < 100 | O=C(O)c1[nH]nnc1Sc1ccc(-c2cccc(C3CCCCC3)c2)cc1 [Compound 247, 4-((3′-cyclohexyl-[1,1′-biphenyl]-4-yl)thio)-1H-1,2,3-triazole-5-carboxylic acid]
26 | 1000 to 10000 | O=C(OCOC(=O)c1[nH]nnc1Oc1ccc2cc(Cl)ccc2c1)c1ccccc1 [Compound 249, (benzoyloxy)methyl 4-((6-chloronaphthalen-2-yl)oxy)-1H-1,2,3-triazole-5-carboxylate]
27 | < 100 | O=C(O)c1[nH]nnc1Oc1ccc(-c2ccc3cccnc3c2)cc1 [Compound 250, 4-(4-(quinolin-7-yl)phenoxy)-1H-1,2,3-triazole-5-carboxylic acid 2,2,2-trifluoroacetate]
28 | 1000 to 10000 | CC(C)(C)C(=O)OCOC(=O)c1[nH]nnc1Oc1ccc2cc(Cl)ccc2c1 [Compound 251, (pivaloyloxy)methyl 4-((6-chloronaphthalen-2-yl)oxy)-1H-1,2,3-triazole-5-carboxylate]
29 | 100 to 1000 | CC(C)C(=O)OCOC(=O)c1[nH]nnc1Oc1ccc2c(c1)CCCC2 [Compound 252, (isobutyryloxy)methyl 4-((5,6,7,8-tetrahydronaphthalen-2-yl)oxy)-1H-1,2,3-triazole-5-carboxylate]
30 | < 100 | O=C(O)c1[nH]nnc1Oc1cccc(OC2CC2)c1 [Compound 253, 4-(3-cyclopropoxyphenoxy)-1H-1,2,3-triazole-5-carboxylic acid 2,2,2-trifluoroacetate]
31 | < 100 | O=C(O)c1[nH]nnc1Oc1ccc(Cl)c(OC(F)(F)F)c1 [Compound 254, 4-(4-chloro-3-(trifluoromethoxy)phenoxy)-1H-1,2,3-triazole-5-carboxylic acid]
32 | < 100 | CC(=O)NCCOc1ccc(-c2ccc(Oc3nn[nH]c3C(=O)O)cc2)cc1 [Compound 255, 4-((4′-(2-acetamidoethoxy)-[1,1′-biphenyl]-4-yl)oxy)-1H-1,2,3-triazole-5-carboxylic acid]
33 | 100 to 1000 | CC(C)C(=O)OCOC(=O)c1[nH]nnc1OC1CCc2cc(Cl)c(Cl)cc2C1 (stereo not drawn) [Compound 256, (isobutyryloxy)methyl 4-((6,7-dichloro-1,2,3,4-tetrahydronaphthalen-2-yl)oxy)-1H-1,2,3-triazole-5-carboxylate]
34 | < 100 | O=C(O)c1[nH]nnc1Oc1ccc(-c2ccc3cnccc3c2)cc1 [Compound 257, 4-(4-(isoquinolin-6-yl)phenoxy)-1H-1,2,3-triazole-5-carboxylic acid]

Row | SMILES | IC50 [nM]
35 | CC(=O)OCOC(=O)c1[nH]nnc1Oc1ccc2cc(Cl)ccc2c1 [Compound 235, acetoxymethyl 4-((6-chloronaphthalen-2-yl)oxy)-1H-1,2,3-triazole-5-carboxylate] | < 100
36 | CC(C)(C)OC(=O)N1CCCCC1C(=O)OCn1nnc(Oc2ccc(Cl)c(Cl)c2)c1C(=O)O (stereo not drawn) [Compound 240, 1-(((1-(tert-butoxycarbonyl)piperidine-2-carbonyl)oxy)methyl)-4-(3,4-dichlorophenoxy)-1H-1,2,3-triazole-5-carboxylic acid] | 1000 to 10000
